The text below walks through data of patent publication US5770742A, “Thiophene-tryptamine derivatives” (Allelix Biopharmaceuticals Inc., priority 1996, dated 1998).

Read-outs that look alike come from different tables or passages of the source.

For one test, the target named is T1, 5-HT1Dα (Homo sapiens, UniProt P28221).
T1 construct: expressed in transfected cells
As to the kind of experiment: Binding affinity, inhibition of 3H-5-HT binding, 5-HT1Dα. The settings on record: 1 h, 100 nm, 60 minute at 22° C., mean of triplicate determinations. The method, then:
(§1) Compounds of the previous examples, as well as reference compounds, were evaluated for binding affinity using cell types receptive specifically to 5-HT1Dα and 5-HT1Dβ ligands. The assay protocol generally entailed the incubation of membranes prepared from cells expressing the 1Dβ or 1Dα sub-type of 5-HT receptors, with ^3 H-5-HT. The test compound was incubated at 100 nm concentration with the radioligand and the membrane homogenates prepared from the recombinant cells. After a 60 minute incubation at 22° C., the incubation was terminated by vacuum filtration. The filters were washed with buffer and counted for radioactivity using liquid scintillation spectrometry. The affinity of the test compound for the 5-HT1Dβ or 5-HT1Dα receptor estimated by its inhibition of binding of the radioligand to the receptor. The result is expressed desciptively as percent inhibition of binding. Each value is the mean of triplicate determinations. For comparison, sumatriptan was also evaluated. The results are presented in Table 2 below, with reference to the compound numbers of Table 1 and the specific synthesis examples given above.

In the next test the target is T2, 5-HT1Dβ (Homo sapiens, UniProt P28222).
T2 construct: expressed in transfected cells
As to the kind of experiment: Binding affinity, inhibition of 3H-5-HT binding, 5-HT1Dβ. The following applies: 1 h, 100 nm, 60 minute at 22° C., mean of triplicate determinations. The method, then: as §1, with “determinations.” for “determinations. For comparison, sumatriptan was also evaluated. The results are presented in Table 2 below, with reference to the compound numbers of Table 1 and the specific synthesis examples given above.”

The next test concerns the target T3, 5-HT1D receptor (Oryctolagus cuniculus, UniProt P49144).
T3 construct: Ring segments of the vein (4-5 mm in length) were cut and the endothelium gently removed; from tissue; host or cells: rabbit saphenous vein rings, endothelium removed
As to the kind of experiment: Agonist assay, contraction of rabbit isolated saphenous vein. The arrangement: species or system rabbit (male New Zealand White). How it is done: Tissues were obtained from male New Zealand White rabbits (c. 3-4 kg) which were sacrificed by an overdose of pentobarbitol. The saphenous veins from both the left and right side were cleaned of fat and connective tissue and placed in Krebs solution (118 mM NaCl, 11 mM glucose, 25 mM NaHCO3, 4,7 mM KCl, 2.5 mM CaCl2 2H2 O, 1.2 mM KH2 PO4 and 1.2 mM MgSO4 7H2 O). Ring segments of the vein (4-5 mm in length) were cut and the endothelium gently removed. The segments were mounted in 10 mL baths containing Krebs buffer and were constantly aerated with 95% oxygen/5% carbon dioxide and maintained at 37° C. and pH 7.4 in order to record the isometric tension. A resting tension of 2.5 g was applied and the tissues allowed to equilibrate for 90 minutes, with washing every 15-20 minutes. After the equilibrium period, the rings were depolarized by addition of two aliquots of KCl (80 mM final concentration)separated by a 20 minute washing period. The tissues were then exposed to prazosin, idazoxan and indomethacin (all 1 μM in final concentration) for 30 minutes in order to exclude the actions of α1 - and α2 -adrenergic receptors and prostaglandin receptors respectively. […] Responses were calculated as a percentage of the maximal contraction evoked by 80 mM KCl. Only one compound was tested per preparation.
EC50 represents the concentration of the compound which causes 50% of the maximum contraction effected by it.

In the next test the test system is 5-HT1 receptor. The following applies: WO 93/21178, Example 67; cited from earlier work.
The test system of another test is 5-HT1F. The following applies: prior art; cited from earlier work.
A further test concerns 5-HT1D. The settings on record: prior art; cited from earlier work.
For another test, the system named is other 5-HT receptors. The following applies: prior art; cited from earlier work.
Setting [1] is: rabbit isolated saphenous vein, 50% of the maximum contraction effected by the compound, with prazosin, idazoxan, indomethacin 1 μM, read-out: EC50.

T3 sequence (P49144 whole entry): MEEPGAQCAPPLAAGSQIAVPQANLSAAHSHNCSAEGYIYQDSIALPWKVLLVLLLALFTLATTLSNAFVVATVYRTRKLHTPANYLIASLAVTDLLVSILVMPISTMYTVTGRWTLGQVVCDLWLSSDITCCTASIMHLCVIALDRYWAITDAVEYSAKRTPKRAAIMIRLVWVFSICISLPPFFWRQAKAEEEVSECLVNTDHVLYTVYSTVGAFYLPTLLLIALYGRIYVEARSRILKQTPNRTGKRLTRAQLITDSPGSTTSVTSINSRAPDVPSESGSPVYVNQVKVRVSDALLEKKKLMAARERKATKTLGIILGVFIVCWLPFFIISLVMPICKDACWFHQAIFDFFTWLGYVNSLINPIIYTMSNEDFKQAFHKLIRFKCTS
T1 sequence (P28221 whole entry): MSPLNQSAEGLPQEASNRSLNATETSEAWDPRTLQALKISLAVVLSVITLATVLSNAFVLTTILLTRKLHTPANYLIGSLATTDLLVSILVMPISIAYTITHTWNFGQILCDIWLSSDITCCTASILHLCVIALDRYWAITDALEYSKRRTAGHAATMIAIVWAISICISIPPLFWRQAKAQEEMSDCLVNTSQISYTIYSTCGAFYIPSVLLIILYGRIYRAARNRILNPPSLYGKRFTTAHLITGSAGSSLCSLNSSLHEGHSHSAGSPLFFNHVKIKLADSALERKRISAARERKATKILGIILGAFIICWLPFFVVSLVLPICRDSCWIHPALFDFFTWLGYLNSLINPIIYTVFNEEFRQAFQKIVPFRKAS
T2 sequence (P28222 whole entry): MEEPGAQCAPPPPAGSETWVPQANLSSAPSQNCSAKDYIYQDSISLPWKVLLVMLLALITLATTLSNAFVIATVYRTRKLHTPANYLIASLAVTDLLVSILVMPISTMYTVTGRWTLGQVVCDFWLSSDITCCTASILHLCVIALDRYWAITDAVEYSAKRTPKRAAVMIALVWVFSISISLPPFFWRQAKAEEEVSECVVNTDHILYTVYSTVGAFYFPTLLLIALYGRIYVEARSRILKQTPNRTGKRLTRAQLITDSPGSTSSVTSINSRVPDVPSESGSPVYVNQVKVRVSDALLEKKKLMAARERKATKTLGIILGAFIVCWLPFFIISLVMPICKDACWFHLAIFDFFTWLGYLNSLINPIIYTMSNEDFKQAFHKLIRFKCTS

As usually defined, the inhibition is the share of the control response that was lost under treatment. Read a low inhibition as a response near the control. As usually defined, the EC50 is the concentration at which the effect is half-maximal. For `CN1CCC(c2c[nH]c3ccc(-c4cccs4)cc23)C1` (racemic) [Compound 8, 3-(N-Methylpyrrolidin-3-yl)-5-(2-thienyl)-1H-indole], the inhibition at 0.1 µM at 5-HT1Dα worked out at 95%; on 5-HT1Dβ, 68%. The concentration giving a half-maximal response (EC50) at 5-HT1D receptor (setting [1]) was found to be 1730 nM.

`CN(C)CC(O)c1c[nH]c2ccc(-c3ccsc3)cc12` (racemic) [Compound 10, (±)-3-(2-N,N-Dimethylamino-1-hydroxylethyl)-5-(3-thienyl)-1H-indole]: the inhibition at 0.1 µM on 5-HT1Dα was determined as 93%; on 5-HT1Dβ, 42%. Besides, the EC50 on 5-HT1D receptor (setting [1]) was 888 nM.

For the compound `CN1CCC[C@@H]1Cc1c[nH]c2ccc(-c3ccc(C(N)=O)s3)cc12` [5-(5-carbamoyl-2-thienyl)-3-(1-methylpyrrolidin-2(R)-ylmethyl)-1H-indole], in the test on 5-HT1 receptor, the 5-HT1 receptor activity entry is on record as “some 5-HT1 receptor activity”.

With `CN1CCC[C@@H]1Cc1c[nH]c2ccc(-c3cccs3)cc12` [Compound 1, 3-(N-Methylpyrrolidin-2R-ylmethyl)-5-(2-thienyl)-1H-indole], the values for the inhibition at 0.1 µM on 5-HT1Dα and on 5-HT1Dβ were 98% and 84%, respectively. The concentration giving a half-maximal response (EC50) on 5-HT1D receptor (setting [1]) stood at 121 nM.

`CN1CCC[C@@H]1Cc1c[nH]c2ccc(-c3ccsc3)cc12` [Compound 2, 3-(N-Methylpyrrolidin-2R-ylmethyl)-5-(3-thienyl)-1H-indole]: the inhibition at 0.1 µM on 5-HT1Dα is 99%; on 5-HT1Dβ, 83%. For the same compound, on 5-HT1D receptor (setting [1]), the EC50 came out at 140 nM.

Take `CN(C)CCc1c[nH]c2ccc(-c3ccsc3)cc12` [Compound 3, 3-(2-N,N-Dimethylaminoethyl)-5-(3-thienyl)-1H-indole]: the results for the inhibition at 0.1 µM on 5-HT1Dα and at 5-HT1Dβ were 98% and 78%, respectively. The EC50 on 5-HT1D receptor (setting [1]) turned out to be 432 nM.

With `CN(C)CCc1c[nH]c2ccc(-c3cccs3)cc12` [Compound 4, 3-(2-N,N-Dimethylaminoethyl)-5-(2-thienyl)-1H-indole], the inhibition at 0.1 µM on 5-HT1Dα came out at 97%; on 5-HT1Dβ, 72%. In addition, on 5-HT1D receptor (setting [1]), the EC50 was found to be 806 nM.

For `CN(C)CCc1c[nH]c2ccc(-c3ccc(CO)s3)cc12` [Compound 5, 3-(2-N,N-Dimethylaminoethyl)-5-(5-hydroxymethylthienyl-2-yl)-1H-indole], the inhibition at 0.1 µM on 5-HT1Dα came to 96%; on 5-HT1Dβ it was 77%.

In the case of `CN1CCC[C@H]1Cc1c[nH]c2ccc(-c3cccs3)cc12` [Compound 6, 3-(N-Methylpyrrolidin-2S-ylmethyl)-5-(2-thienyl)-1H-indole], the results for the inhibition at 0.1 µM at 5-HT1Dα and at 5-HT1Dβ were 96% and 47%, respectively. On 5-HT1D receptor (setting [1]), the 50% effective concentration (EC50) was found to be 873 nM.

Consider `NCCc1c[nH]c2ccc(-c3cccs3)cc12` [Compound 7, 3-(2-Aminoethyl)-5-(2-thienyl)-1H-indole], for which the inhibition at 0.1 µM on 5-HT1Dα amounted to 98%; at 5-HT1Dβ it was 78%. Also, the EC50 at 5-HT1D receptor (setting [1]) turned out to be 607 nM.

On to `CN(C)CCc1c[nH]c2ccc(-c3ccc(Cl)s3)cc12` [Compound 9, 5-(5-Chlorothien-2-yl)-3-(2-N,N-dimethylaminoethyl)-1H-indole], for which the results for the inhibition at 0.1 µM at 5-HT1Dα and on 5-HT1Dβ were 97% and 83%, respectively.

Turning to `c1csc(-c2ccc3[nH]cc(CCN4CCCC4)c3c2)c1` [Compound 11, 3-(2-Pyrrolidinylethyl)-5-(2-thienyl)-1H-indole], the inhibition at 0.1 µM on 5-HT1Dα stood at 84%; at 5-HT1Dβ, 14%. Besides, the EC50 at 5-HT1D receptor was 2340 nM. Besides, on 5-HT1D receptor (rabbit isolated saphenous vein, maximum contraction vs KCl (80 mM), read-out: agonist type (maximum contraction relative to 80 mM KCl)), the Emax was less than 60%.

Take `Cc1ccc(-c2ccc3[nH]cc(CCN(C)C)c3c2)s1` [Compound 12, 3-(2-N,N-Dimethylaminoethyl)-5-(5-methylthien-2-yl)-1H-indole]: the inhibition at 0.1 µM on 5-HT1Dα was found to be 87%; on 5-HT1Dβ it was 52%.

In turn, `CNS(=O)(=O)Cc1ccc2[nH]cc(CCN(C)C)c2c1` [Sumatriptan] displayed an inhibition at 0.1 µM on 5-HT1Dα of 95%. For the same compound, the “binding affinity for 5-HT1F” value in the test on 5-HT1F is “high affinity”. Also, the “binding affinity for 5-HT1D” value with 5-HT1D was “high affinity”. Moreover, in the test with other 5-HT receptors, the “binding to other 5-HT receptors” value is “substantial exclusion of other 5-HT receptors”.
